Results taken from ChEMBL document CHEMBL1158657, “Improved antitumor activity by modification of nogalamycin” (1979).
Active and inactive are the calls of the source. The rule behind the calls is not given here.

Tests used:
L1210 [1] = assay: Cytotoxicity against mouse L1210 cells; type: functional; conditions: for IC50: Mus musculus
P388 [2] = assay: Antitumor activity against mouse P388 cells xenografted in mouse assessed as increase in life span at 6.3 mg/kg/day, ip after 9 days; type: functional; conditions: route intraperitoneal
P388 [3] = assay: Antitumor activity against mouse P388 cells xenografted in mouse assessed as increase in life span at 8 mg/kg/day, ip after 9 days; type: functional; conditions: route intraperitoneal
P388 [4] = assay: Antitumor activity against mouse P388 cells xenografted in mouse assessed as increase in life span at 12.5 mg/kg/day, ip after 9 days; type: functional; conditions: route intraperitoneal
P388 [5] = assay: Antitumor activity against mouse P388 cells xenografted in mouse assessed as increase in life span at 100 mg/kg/day, ip after 9 days; type: functional; conditions: route intraperitoneal
P388 [6] = assay: Antitumor activity against mouse P388 cells xenografted in mouse assessed as increase in life span at 70 mg/kg/day, ip after 9 days; type: functional; conditions: route intraperitoneal
P388 [7] = assay: Antitumor activity against mouse P388 cells xenografted in mouse assessed as increase in life span at 5 mg/kg/day, ip after 9 days; type: functional; conditions: route intraperitoneal
B16 [8] = assay: Antitumor activity against mouse B16 cells xenografted in mouse assessed as increase in life span at 0.5 to 1 mg/kg/day, ip after 9 days; type: functional; conditions: route intraperitoneal
P388 [9] = assay: Antitumor activity against mouse P388 cells xenografted in mouse assessed as increase in life span at 1 mg/kg/day, ip after 9 days; type: functional; conditions: route intraperitoneal
L1210 [10] = assay: Antitumor activity against mouse L1210 cells xenografted in mouse assessed as increase in life span at 1 mg/kg/day, ip after 9 days; type: functional; conditions: route intraperitoneal
L1210 [11] = assay: Inhibition of DNA synthesis in mouse L1210 cells; type: functional; conditions: read-out: ID50 (the source's name)
L1210 [12] = assay: Inhibition of RNA synthesis in mouse L1210 cells; type: functional; conditions: read-out: ID50 (the source's name)
L1210 [13] = assay: Inhibition of protein synthesis in mouse L1210 cells; type: functional, cell-based
L1210 [14] = assay: Inhibition of RNA synthesis in mouse L1210 cells at 10 nmole/ml; type: functional
P388 [15] = assay: Antitumor activity against mouse P388 cells xenografted in mouse assessed as increase in life span at 25 mg/kg/day, ip after 9 days; type: functional; conditions: route intraperitoneal
B16 [16] = assay: Antitumor activity against mouse B16 cells xenografted in mouse assessed as increase in life span at 16 mg/kg/day, ip after 9 days; type: functional; conditions: route intraperitoneal
P388 [17] = assay: Antitumor activity against mouse P388 cells xenografted in mouse assessed as increase in life span at 10 mg/kg/day, ip after 9 days; type: functional; conditions: route intraperitoneal
B16 [18] = assay: Antitumor activity against mouse B16 cells xenografted in mouse assessed as increase in life span at 2 to 5 mg/kg/day, ip after 9 days; type: functional; conditions: route intraperitoneal
L1210 [19] = assay: Antitumor activity against mouse L1210 cells xenografted in mouse assessed as increase in life span at 2.5 mg/kg/day, ip after 9 days; type: functional; conditions: route intraperitoneal
[20] = L1210, read-out: ID50 (the source's name)

Question: Which results are given for `CCCO[C@H]1C[C@@](C)(O)Cc2cc3c(c(O)c21)C(=O)c1c(O)cc2c(c1C3=O)O[C@@H]1O[C@@]2(C)[C@H](O)[C@@H](N(C)C)[C@@H]1O`?
Answer: IC50 (L1210 [1]; L1210, read-out: ID50): 0.1 µg/mL; Activity (P388 [2]): 34%

Question: With `COC(=O)[C@@H]1c2cc3c(c(O)c2[C@@H](SC)C[C@]1(C)O)C(=O)c1c(O)cc2c(c1C3=O)O[C@@H]1O[C@@]2(C)[C@H](O)[C@@H](N(C)C)[C@@H]1O` as the molecule, how does the Activity (P388 [3]) read?
Answer: 37%

Question: `Cc1ccc2c(O)c3c(cc2c1)C(=O)c1c2c(cc(O)c1C3=O)[C@@]1(C)O[C@@H](O2)[C@@H](O)[C@H](N(C)C)[C@H]1O` [NOGARENE] was tested. Which ID95 (L1210 [1]) did it give?
Answer: 370 nM

Question: What about the IC50 (L1210 [1]; [20]) of the same molecule?
Answer: 220 nM

Question: And the Activity (P388 [4])?
Answer: 17%

Question: Which IC50 (L1210 [1]; L1210, read-out: ID50) does the source give for `CCO[C@H]1C[C@@](C)(O)[C@H](C(=O)OC)c2cc3c(c(O)c21)C(=O)c1c(O)cc2c(c1C3=O)O[C@@H]1O[C@@]2(C)[C@H](O)[C@@H](N(C)C)[C@@H]1O` here?
Answer: 0.15 µg/mL

Question: And the Activity (P388 [4])?
Answer: 70%

Question: Which ID95 (L1210 [1]) does the source give for `CN(C)[C@H]1[C@H](O)[C@@H]2Oc3c(cc(O)c4c3C(=O)c3cc5c(c(O)c3C4=O)CC[C@](C)(O)C5)[C@@](C)(O2)[C@@H]1O` here?
Answer: 1760 nM

Question: What about the IC50 (L1210 [1]; [20]) of the same molecule?
Answer: 940 nM

Question: And the Activity (P388 [5])?
Answer: 21%

Question: Which Activity (P388 [6]) does the source give for `COC(=O)c1c(C)ccc2c(O)c3c(cc12)C(=O)c1c2c(cc(O)c1C3=O)[C@@]1(C)O[C@@H](O2)[C@@H](O)[C@H](N(C)C)[C@H]1O` [NOGALARENE] here?
Answer: 50%

Question: And the ID95 (L1210 [1])?
Answer: 580 nM

Question: What about the IC50 (L1210 [1]; [20]) of the same molecule?
Answer: 240 nM

Question: For `COC(=O)[C@@H]1c2cc3c(c(O)c2[C@@H](N=[N+]=[N-])C[C@]1(C)O)C(=O)c1c(O)cc2c(c1C3=O)O[C@@H]1O[C@@]2(C)[C@H](O)[C@@H](N(C)C)[C@@H]1O`, which Activity (P388 [7]) is on record?
Answer: 33%

Question: What does the source list for `COC(=O)[C@@H]1c2cc3c(c(O)c2[C@@H](O[C@@H]2O[C@@H](C)[C@H](OC)[C@@](C)(OC)[C@H]2OC)C[C@]1(C)O)C(=O)c1c(O)cc2c(c1C3=O)O[C@@H]1O[C@@]2(C)[C@H](O)[C@@H](N(C)C)[C@@H]1O` [NOGALAMYCIN]?
Answer: Activity (B16 [8]): 71%; ID95 (L1210 [1]): 0.18 µg/mL; IC50 (L1210 [1]; L1210, read-out: ID50): 0.078 µg/mL; Activity (P388 [9]): 49%; Activity (L1210 [10]): 30%; IC50 (L1210 [11]): 3300 nM; IC50 (L1210 [12]): 400 nM; Activity (L1210 [13]): inactive; inhibition (INH) (L1210 [14]): 99.9%

Question: `CCN(CC)[C@H]1C[C@](C)(O)[C@H](C(=O)OC)c2cc3c(c(O)c21)C(=O)c1c(O)cc2c(c1C3=O)O[C@@H]1O[C@@]2(C)[C@H](O)[C@@H](N(C)C)[C@@H]1O` was tested. Which Activity (P388 [15]) did it give?
Answer: 38%

Question: Which Activity (B16 [16]) does the source give for `CO[C@H]1C[C@](C)(O)Cc2cc3c(c(O)c21)C(=O)c1c(O)cc2c(c1C3=O)O[C@@H]1O[C@@]2(C)[C@H](O)[C@@H](N(C)C)[C@@H]1O` here?
Answer: 105%

Question: And the IC50 (L1210 [1]; L1210, read-out: ID50)?
Answer: 0.41 µg/mL

Question: What about the Activity (P388 [4]) of the same molecule?
Answer: 76%

Question: And the IC50 (L1210 [11])?
Answer: 11600 nM

Question: And the IC50 (L1210 [12])?
Answer: 8300 nM

Question: And the “inhibition (INH)” value (L1210 [14])?
Answer: 91.2%

Question: For `COC(=O)[C@@H]1c2cc3c(c(O)c2[C@@H](OC(C)=O)C[C@]1(C)O)C(=O)c1c(O)cc2c(c1C3=O)O[C@@H]1O[C@@]2(C)[C@H](O)[C@@H](N(C)C)[C@@H]1O`, which Activity (P388 [17]) is on record?
Answer: 87%

Question: With `CO[C@H]1[C@H](O[C@H]2C[C@](C)(O)Cc3cc4c(c(O)c32)C(=O)c2c(O)cc3c(c2C4=O)O[C@@H]2O[C@@]3(C)[C@H](O)[C@@H](N(C)C)[C@@H]2O)O[C@@H](C)[C@H](OC)[C@@]1(C)OC` [DISNOGAMYCIN] as the molecule, how does the Activity (B16 [18]) read?
Answer: 61%

Question: What about the Activity (P388 [7]) of the same molecule?
Answer: 93%

Question: And the ID95 (L1210 [1])?
Answer: 0.27 µg/mL

Question: And the IC50 (L1210 [1]; L1210, read-out: ID50)?
Answer: 0.18 µg/mL

Question: What about the Activity (L1210 [19]) of the same molecule?
Answer: 27%

Question: And the IC50 (L1210 [11])?
Answer: 3000 nM

Question: And the IC50 (L1210 [12])?
Answer: 500 nM

Question: `CCCO[C@H]1C[C@@](C)(O)[C@H](C(=O)OC)c2cc3c(c(O)c21)C(=O)c1c(O)cc2c(c1C3=O)O[C@@H]1O[C@@]2(C)[C@H](O)[C@@H](N(C)C)[C@@H]1O` was tested. Which IC50 (L1210 [1]; L1210, read-out: ID50) did it give?
Answer: 0.3 µg/mL
